Consider 8 molecules from PubChem BioAssay AID1259411 (Chemical Carcinogenesis Research Information System (CCRIS), 2018).

This data set relates to rodent carcinogenicity bioassays, tumor incidence. The data set can be described thus: CCRIS carcinogenicity studies. The gist of the method: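 Archive of carcinogenicity, mutagenicity, tumor promotion and tumor inhibition results drawn from journals, NCI reports and other sources, expert-reviewed; covers 1985-2011 and is no longer updated.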

Active and inactive are the calls of the source. No rule for the calls is given here.

Take `CC(O)c1ccccc1` (stereo not drawn): the carcinogen call is “inactive; negative” (Species: MOUSE, Strain/Sex: B6C3F1/FEMALE, Route: GAVAGE, Dose: 0, 375, 750 MG/KG IN CORN OIL 5 D/WK FOR 103 WK (STUDY DURATION: 104 WK), Dose: 0, 375, 750 MG/KG IN CORN OIL 5 D/WK FOR 103 WK (STUDY DURATION: 104 WK)); “inactive; negative” (Species: MOUSE, Strain/Sex: B6C3F1/MALE, Route: GAVAGE, Dose: 0, 375, 750 MG/KG IN CORN OIL 5 D/WK FOR 103 WK (STUDY DURATION: 104 WK), Dose: 0, 375, 750 MG/KG IN CORN OIL 5 D/WK FOR 103 WK (STUDY DURATION: 104 WK)); “inactive; negative” (Species: RAT, Strain/Sex: F344/FEMALE, Route: GAVAGE, Dose: 0, 375, 750 MG/KG IN CORN OIL 5 D/WK FOR 103 WK (STUDY DURATION: 105 WK), Dose: 0, 375, 750 MG/KG IN CORN OIL 5 D/WK FOR 103 WK (STUDY DURATION: 105 WK)); “active; positive” (Species: RAT, Strain/Sex: F344/MALE, Route: GAVAGE, Dose: 0, 375, 750 MG/KG IN CORN OIL 5 D/WK FOR 103 WK (STUDY DURATION: 105 WK), Dose: 0, 375, 750 MG/KG IN CORN OIL 5 D/WK FOR 103 WK (STUDY DURATION: 105 WK), Tumor Site: Type of Lesion: KIDNEY: TUBULAR CELL ADENOMA, TUBULAR CELL ADENOMA OR ADENOCARCINOMA).
Consider `CCOc1ccc(N(O)C(C)=O)cc1`, for which the carcinogen call (Species: RAT, Strain/Sex: ALBINO/MALE, Route: ORAL, Dose: 0.05, 0.1, 0.5% IN DIET, Dose: 0.05, 0.1, 0.5% IN DIET, Tumor Site: Type of Lesion: LIVER: HEPATOCELLULAR CARCINOMA) is “active; positive”.
On to `Nc1cc2c3c(ccc2c2ccccc12)[C@H](O)[C@@H](O)C=C3`, for which the carcinogen call (Species: MOUSE, Strain/Sex: SWISS/FEMALE, Route: INTRAPERITONEAL, Dose: 0, 100 NMOL (TOTAL DOSE) 1/7, 2/7 AND 4/7 ADMINISTERED ON DAYS 1, 8 AND 15 OF LIFE RESPECTIVELY (STUDY DURATION: 32 WK), Tumor Site: Type of Lesion: LUNG: TUMOR) was “active; positive” and the carcinogen call (Species: MOUSE, Strain/Sex: SWISS/MALE, Route: INTRAPERITONEAL, Dose: 0, 100 NMOL (TOTAL DOSE) 1/7, 2/7 AND 4/7 ADMINISTERED ON DAYS 1, 8 AND 15 OF LIFE RESPECTIVELY (STUDY DURATION: 32 WK), Tumor Site: Type of Lesion: LUNG: TUMOR, LIVER: TUMOR) is “active; positive”.
`CCCSP(=O)(OCC)SCCC`: the carcinogen call is, setting by setting: (Species: Mouse, Strain/Sex: B6C3F1/Female (50/Group), Route: Oral, Dose: 0, 0.2, 2, 30 ppm of 94.6% ethoprop in diet for 104 wk, study duration 104 wk, Dose: 0, 0.2, 2, 30 ppm of 94.6% ethoprop in diet for 104 wk, study duration 104 wk) “inactive; negative”; (Species: Mouse, Strain/Sex: B6C3F1/Male (50/Group), Route: Oral, Dose: 0, 0.2, 2, 30 ppm of 94.6% ethoprop in diet for 104 wk, study duration 104 wk, Dose: 0, 0.2, 2, 30 ppm of 94.6% ethoprop in diet for 104 wk, study duration 104 wk) “inactive; negative”; (Species: Rat, Strain/Sex: Crl:CD(SD)BR VAF/Plus/Female (80-90/Group), Route: Oral, Dose: 0, 60, 400 (reduced from 600 during wk 3) ppm of 95.6% ethoprop in diet for 104 wk, study duration 104 wk, Dose: 0, 60, 400 (reduced from 600 during wk 3) ppm of 95.6% ethoprop in diet for 104 wk, study duration 104 wk) “inactive; negative”; (Species: Rat, Strain/Sex: Crl:CD(SD)BR VAF/Plus/Male (80-90/Group), Route: Oral, Dose: 0, 60, 400 (reduced from 600 during wk 3) ppm of 95.6% ethoprop in diet for 104 wk, study duration 104 wk, Dose: 0, 60, 400 (reduced from 600 during wk 3) ppm of 95.6% ethoprop in diet for 104 wk, study duration 104 wk) “inactive; negative”.
With `CC1CN(N=O)CCC1=O` (stereo not drawn), the carcinogen call (Species: RAT, Strain/Sex: F344/FEMALE, Route: ORAL, Dose: 0, 80 ML OF SOLUTION OF 126 MG/L IN NEUTRAL DEIONIZED DRINKING WATER 5 D/WK FOR 26 WK (STUDY DURATION: 40 WK), Tumor Site: Type of Lesion: NASAL CAVITY: SQUAMOUS CELL CARCINOMA, TONGUE: TUMOR, FORESTOMACH: TUMOR, ESOPHAGUS: TUMOR, TRACHEA: TUMOR, Tumor Site: Type of Lesion: NASAL CAVITY: SQUAMOUS CELL CARCINOMA, TONGUE: TUMOR, FORESTOMACH: TUMOR, ESOPHAGUS: TUMOR, TRACHEA: TUMOR) was “active; positive”.
In the case of `FC(F)(F)CCl`, the carcinogen call is, setting by setting: (Species: RAT, Strain/Sex: WISTAR/FEMALE, Route: GAVAGE, Dose: 300 MG/KG IN CORN OIL 5/WK FOR 52 WK, Tumor Site: Type of Lesion: UTERUS: ADENOCARCINOMA) “active; positive”; (Species: RAT, Strain/Sex: WISTAR/MALE, Route: GAVAGE, Dose: 300 MG/KG IN CORN OIL 5/WK FOR 52 WK, Tumor Site: Type of Lesion: TESTES: INTERSTITIAL CELL TUMOR) “active; positive”.
`CC(CN1CC(=O)NC(=O)C1)N1CC(=O)NC(=O)C1` (stereo not drawn): the carcinogen call reads like this: (Species: MOUSE, Strain/Sex: B6C3F1/FEMALE, Route: INTRAPERITONEAL, Dose: 0, 40, 80 MG/KG IN BUFFERED SALINE 3/WK FOR 52 WK, Dose: 0, 40, 80 MG/KG IN BUFFERED SALINE 3/WK FOR 52 WK, Tumor Site: Type of Lesion: LYMPHATIC SYSTEM: HISTIOCYTIC LYMPHOMA) “active; positive”; (Species: MOUSE, Strain/Sex: B6C3F1/MALE, Route: INTRAPERITONEAL, Dose: 0, 40, 80 MG/KG IN BUFFERED SALINE 3/WK FOR 52 WK, Dose: 0, 40, 80 MG/KG IN BUFFERED SALINE 3/WK FOR 52 WK) “inactive; negative”; (Species: RAT, Strain/Sex: SPRAGUE-DAWLEY/FEMALE, Route: INTRAPERITONEAL, Dose: 0, 48, 96 MG/KG IN BUFFERED SALINE 3/WK FOR 52 WK, Dose: 0, 48, 96 MG/KG IN BUFFERED SALINE 3/WK FOR 52 WK, Tumor Site: Type of Lesion: UTERUS: ADENOCARCINOMA (NOS)) “active; positive”; (Species: RAT, Strain/Sex: SPRAGUE-DAWLEY/MALE, Route: INTRAPERITONEAL, Dose: 0, 48, 96 MG/KG IN BUFFERED SALINE 3/WK FOR 52 WK, Dose: 0, 48, 96 MG/KG IN BUFFERED SALINE 3/WK FOR 52 WK) “inactive; negative”.
Turning to `CCCN(CCC)c1c([N+](=O)[O-])cc(C(F)(F)F)cc1[N+](=O)[O-]`, the carcinogen call by setting is: (Species: MOUSE, Strain/Sex: B6C3F1/FEMALE, Route: ORAL, Dose: 0, 563, 2250, 4500 PPM IN DIET FOR 2 YR (STUDY DURATION: 2 YR), Dose: 0, 563, 2250, 4500 PPM IN DIET FOR 2 YR (STUDY DURATION: 2 YR)) “inactive; negative”; (Species: MOUSE, Strain/Sex: B6C3F1/FEMALE, Route: ORAL, Dose: 0, 2740, 5192 PPM IN DIET, TWA, Dose: 0, 2740, 5192 PPM IN DIET, TWA, Tumor Site: Type of Lesion: LUNG: ALVEOLAR/BRONCHIOLAR ADENOMA OR CARCINOMA, LIVER: HEPATOCELLULAR ADENOMA OR CARCINOMA) “active; positive”; (Species: MOUSE, Strain/Sex: B6C3F1/MALE, Route: ORAL, Dose: 0, 563, 2250, 4500 PPM IN DIET FOR 2 YR (STUDY DURATION: 2 YR), Dose: 0, 563, 2250, 4500 PPM IN DIET FOR 2 YR (STUDY DURATION: 2 YR)) “inactive; negative”; (Species: MOUSE, Strain/Sex: B6C3F1/MALE, Route: ORAL, Dose: 0, 2000, 3744 PPM IN DIET, TWA, Dose: 0, 2000, 3744 PPM IN DIET, TWA) “inactive; negative”; (Species: MOUSE, Strain/Sex: NMRI/FEMALE, Route: ORAL, Dose: 0, 50, 200, 800 MG/KG IN DIET FOR 104 WK (STUDY DURATION: 104 WK), Dose: 0, 50, 200, 800 MG/KG IN DIET FOR 104 WK (STUDY DURATION: 104 WK)) “inactive; negative”; (Species: MOUSE, Strain/Sex: NMRI/MALE, Route: ORAL, Dose: 0, 50, 200, 800 MG/KG IN DIET FOR 104 WK (STUDY DURATION: 104 WK), Dose: 0, 50, 200, 800 MG/KG IN DIET FOR 104 WK (STUDY DURATION: 104 WK)) “inactive; negative”. Also, the carcinogen call is, setting by setting: (Species: RAT, Strain/Sex: OSBORNE-MENDEL/FEMALE, Route: ORAL, Dose: 0, 4125, 7917 PPM IN DIET, TWA, Dose: 0, 4125, 7917 PPM IN DIET, TWA) “inactive; negative”; (Species: RAT, Strain/Sex: OSBORNE-MENDEL/MALE, Route: ORAL, Dose: 0, 4125, 8000 PPM IN DIET, TWA, Dose: 0, 4125, 8000 PPM IN DIET, TWA) “inactive; negative”; (Species: RAT, Strain/Sex: WISTAR/FEMALE, Route: ORAL, Dose: 0, 200, 800, 3200 MG/KG IN DIET FOR 122 WK (STUDY DURATION: 122 WK), Dose: 0, 200, 800, 3200 MG/KG IN DIET FOR 122 WK (STUDY DURATION: 122 WK)) “inactive; negative”; (Species: RAT, Strain/Sex: WISTAR/MALE, Route: ORAL, Dose: 0, 200, 800, 3200 MG/KG IN DIET FOR 122 WK (STUDY DURATION: WK), Dose: 0, 200, 800, 3200 MG/KG IN DIET FOR 122 WK (STUDY DURATION: WK)) “inactive; negative”.
